Source: US20040033972A1, “Treatment of mycobacterium tuberculosis with antisense polynucleotides” (priority 2002, published 2004)
Values after ≈ are worked out from the molar mass of the structure shown. Where two headings read alike, the source gives them in different places. Where a SMILES comes first, the peptide text is derived from it.

What was measured:
M. tuberculosis = settings: cited from earlier work
[1] = system: poly-L-glutamate/glutamine cell wall structure; settings: 20 μM; cited from earlier work
[2] = biological target: extracellular glutamine synthetase (Mycobacterium tuberculosis, UniProt P9WN39); settings: 20 μM; cited from earlier work
M. tuberculosis Erdman [3] = assay: Growth of M. tuberculosis Erdman broth cultures (colony forming units); assay type: cell-based
M. tuberculosis Erdman [4] = assay: microbe, parasite or virus in culture; settings: Mycobacterium tuberculosis
M. smegmatis 1-2c [5] = assay: microbe, parasite or virus in culture; settings: Mycolicibacterium smegmatis, 12C
M. tuberculosis Erdman [6] = system: M. tuberculosis Erdman
M. smegmatis 1-2c [7] = system: M. smegmatis 1-2c

extracellular glutamine synthetase, sequence (P9WN39 2-478 limits assumed): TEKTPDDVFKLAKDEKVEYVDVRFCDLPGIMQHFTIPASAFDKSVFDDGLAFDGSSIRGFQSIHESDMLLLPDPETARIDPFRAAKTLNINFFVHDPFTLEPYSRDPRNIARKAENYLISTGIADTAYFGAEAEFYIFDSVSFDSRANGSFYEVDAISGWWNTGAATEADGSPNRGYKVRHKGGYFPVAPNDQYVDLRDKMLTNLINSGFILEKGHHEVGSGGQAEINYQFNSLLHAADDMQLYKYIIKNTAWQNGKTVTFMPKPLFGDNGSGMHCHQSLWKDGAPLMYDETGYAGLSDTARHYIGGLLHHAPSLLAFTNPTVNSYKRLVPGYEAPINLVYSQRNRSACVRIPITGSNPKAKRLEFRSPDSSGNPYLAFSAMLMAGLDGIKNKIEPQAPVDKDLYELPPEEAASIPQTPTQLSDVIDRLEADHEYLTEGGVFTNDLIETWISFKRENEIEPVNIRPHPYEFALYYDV

CS(=N)(=O)CC[C@H](N)C(=O)O (stereo partly drawn) [L-methionine-S-sulfoximine]
inhibition of bacterial growth (M. tuberculosis; 2 μM): 1.5-2 log units
reduction of bacterial growth (M. tuberculosis; 20 μM): ≥ 2.5 log units
reduction of the amount of the poly-L-glutamate/glutamine cell wall structure [1]: 93%
reduction of extracellular glutamine synthetase activity [2]: 80%

NCC[C@H](O)C(=O)N[C@@H]1C[C@H](N)[C@@H](O[C@H]2O[C@H](CN)[C@@H](O)[C@H](O)[C@H]2O)[C@H](O)[C@H]1O[C@H]1O[C@H](CO)[C@@H](O)[C@H](N)[C@H]1O [amikacin]
antibacterial effect of free amikacin (M. tuberculosis Erdman [3]; 1 μM): bacteriostatic
antibacterial effect of free amikacin (M. tuberculosis Erdman [3]; 5.8 μg per ml (10 μM)): strongly bactericidal

CC[C@@H](CO)NCCN[C@@H](CC)CO [ethambutol]
MIC (M. tuberculosis Erdman [4]): ~5 µg/mL (≈ 24.5 µM)
MIC (M. smegmatis 1-2c [5]): ~0.01 µg/mL (≈ 0.0489 µM)

CC(C)C[C@@H]1NC(=O)[C@@H](Cc2ccccc2)NC(=O)[C@H](CCN)NC(=O)[C@@H](NC(=O)[C@H](CCN)NC(=O)[C@@H](N)[C@@H](C)O)CCNC(=O)[C@H]([C@@H](C)O)NC(=O)[C@H](CCN)NC(=O)[C@H](CCN)NC1=O [polymyxin B nonapeptide] (HELM PEPTIDE1{T.[Dab].[Dab].[Dab].[dF].L.[Dab].[Dab].T}$PEPTIDE1,PEPTIDE1,3:R3-9:R2$$$V2.0; N-terminus assumed)
MIC (M. tuberculosis Erdman [6]): ~5 µg/mL (≈ 5.19 µM)
MIC (M. smegmatis 1-2c [7]): ~5 µg/mL (≈ 5.19 µM)
